Key:
[1] = system: P. gingivalis; assay: Bacterial growth, optical density at 600 nm; type: cell-based, Porphyromonas gingivalis
Procedure: Bacterial strain and growth condition. P. gingivalis 33277 was cultured in tryptic soy broth supplemented with yeast extract (1 mg/ml), hemin (5 μg/ml) and menadione (1 μg/ml) and incubated at 37° C. in anaerobic chamber (85% N2, 10% H2, 5% CO2). S. gordonii DL1 was cultured in brain-heart infusion broth media containing 0.5% yeast extract and incubated at anaerobically at 37° C.
Bacterial growth. […] P. gingivalis and S. gordonii growth was determined by measuring optical density at 600 nm.

[2] = system: P. gingivalis total cell lysates; assay: SPR: P. gingivalis total cell lysates run over immobilized liposomes; type: binding, Porphyromonas gingivalis; settings: LIP-1 sensor, total cell lysates as analyte
Procedure: (§1) Liposome preparation. Total lipids from ginger exosome-like nanoparticles (GELNs) were extracted with chloroform:methanol (2:1, v/v). Thin layer chromatography (TLC) was performed with standard PA(34:2). The corresponding PA band was excised from the TLC plate and remaining bands were pool together. GELNs total lipids, PA depleted lipids and PA(34:2) were completely dried under stream of nitrogen gas. The lipid film was suspended in HEPES-buffered saline (HBS) running buffer (20 mM HEPES, 150 mM NaCl, pH 7.4) and gently vortexed and sonicated for 10 minutes until clear solution was formed. The liposome suspension was extruded through a poly carbonated membrane filter syringe with pore size of 100 nm. The size of liposome was confirmed by NanoSight NS300 (Malvern Panalytical Inc, MA, USA). Total lipids were determined by measuring total phosphate levels.
Surface Plasmon Resonance (SPR). SPR experiments were conducted on an OPENSPR™ (Nicoya, Lifesciences, ON, CA). All experiments were carried on LIP-1 sensor (Nicoya, Lifesciences). Tests were run at flow rate of 20 μl/minute using HBS running buffer (20 mM HEPES, 150 mM NaCl, pH 7.4). First, LIP-1 sensor chip was cleaned with Octyl 0-D-glucopyranoside (40 mM) and CHAPS (20 mM). […] The sensograms were analyzed using TRACEDRAWER™ brand kinetic Analysis software. […]

[3] = system: HBP35 synthetic peptide (functional domain of hemin binding protein 35); assay: SPR: HBP35 synthetic peptide as analyte over immobilized liposomes; parameters: species or system Porphyromonas gingivalis; settings: liposomes immobilized on LIP-1 sensor; non-specific peptide as negative control
Procedure: as §1, with “The size of liposome was confirmed by NanoSight NS300 (Malvern Panalytical Inc, MA, USA).” left out
Surface Plasmon Resonance (SPR). […] The sensograms were analyzed using TRACEDRAWER™ brand kinetic Analysis software.
Whether the HBP35 synthetic peptide directly bound to PA (34:2) and/or PA (34:1) of GELNs lipids was also tested. […] The lipid-protein interactions were determined by SPR sensograms. Fluorescent confocal micrographs of P. gingivalis labelled with PKH67 (green fluorescence) and GELNs and LipidG liposomes were labelled with PKH26 (red fluorescence). […] Particles and liposomes taken up by P. gingivalis were also quantified by flow cytometry. […]

[4] = system: arginine-specific (Rgp) gingipain; assay: Gingipain proteolytic activity (N-benzoyl-L-arginine-pNA); type: cell-based, Porphyromonas gingivalis; settings: GELNs and GELN lipids 2×10^8 and 4×10^8 particles/ml vs PBS control; PA(34:2), aly-miR159a vs control
Procedure: Gingipain proteolytic activity. The proteolytic activity of arginine-specific (Rgp) and lysine specific (Kgp) gingipain was measured. P. gingivalis was cultured to mid-log phase and treated with and without GELNs (2.0-4.0×10^8 particles/ml) for 6 hour. The bacterial cells were collected by centrifugation at 5000 g for 10 minutes, washed, and lysed with BUGBUSTER® brand lysis reagent (Millipore Sigma, Burlington, MA, USA). The chromogenic p-nitroanilide substrates N-benzoyl-L-arginine-pNA or toluenesulfonyl-glycyl-prolyl-L-lysine-pNA (Sigma) were used to measure RgpA/B and Kgp respectively. Bacterial cell lysates (50 μl) were pre-incubated with assay buffer containing 200 mM Tris-HCl, 5 mM CaCl2/150 mM NaCl and supplemented with 10 mM cysteine in 96-well plate, incubated at 37° C. for 10 minutes, and 0.5 mM of specific substrate was added to each well. The rate of substrate hydrolysis and accumulation of p-nitroanillide was monitored spectrophotometrically at 405 nm. The enzyme activity was calculated and given as mOD/min/μl.

[5] = target: T1, lysine specific (Kgp) gingipain (Porphyromonas gingivalis, UniProt B2RLK2); type: cell-based; settings: GELNs and GELN lipids 2×10^8 and 4×10^8 particles/ml vs PBS control; PA(34:2), aly-miR159a vs control
T1 construct: endogenous in cells; host or cells: Porphyromonas gingivalis, BugBuster lysate of treated bacteria

[6] = system: AraC transcription factor mRNA; type: cell-based, Porphyromonas gingivalis
[7] = system: hemagglutinin (HA) mRNA; type: cell-based, Porphyromonas gingivalis
[8] = system: outer membrane protein (OMP) mRNA; type: cell-based, Porphyromonas gingivalis
[9] = system: rod shape determining protein (RodA) mRNA; type: cell-based, Porphyromonas gingivalis
[10] = system: P. gingivalis; assay: Gliding motility in U shaped glass tube with 0.2% agar; type: cell-based, Porphyromonas gingivalis; settings: GELNs 4.0×10^8 particles/ml, PA (34:2) 5 μg/ml vs PBS; miRNAs vs scrambled miRNA; 48 hours
Procedure: Gliding motility. Gliding motility of P. gingivalis was measured. P. gingivalis was reacted with GELNs (4×10^8 particles/ml) or total lipids extracted from GELNs or miRNAs such as aly-miR-159a-3p, gma-miR166u, and gma-miR166p. A sterile “U” shaped glass tube containing 0.2% agar as suspension medium was produced. P. gingivalis (100 μl) was inoculated one edge of the tube and incubated at anaerobic chamber for 48 hours, the location of bacteria was visualized by cloudiness, and distance movement of P. gingivalis was calculated.
Transferring gingipain from intracellular locations to the cell surface is a critical step in the pathogenesis of P. gingivalis. Gingipains are synthesized with an N-terminal signal peptide targeting them to the Sec translocon where they are exported through the outer-membranes via a novel secretion system referred to as type IX Secretion System (T9SS). T9SS plays a critical role in bacterial gliding motility that could contribute to P. gingivalis pathogenesis. Therefore, it was determined whether GELNs, GELN-derived miRNAs, and/or GELN lipids could play a role in inhibition of gliding motility of P. gingivalis. P. gingivalis were pretreated with GELNs (4.0×10^8 particles/ml) or PA (34:2; 5 μg/ml) or transduced with GELN-derived aly-miR159a, gma-miR166u, or gma-miR166p. […]

[11] = system: T9SS family members porK, porL, porM, porN, porP, porQ, porT, porV, porW, porX, porY, and sov; assay: qPCR of T9SS family member expression; type: cell-based, Porphyromonas gingivalis; settings: GELNs 4.0×10^8 particles/ml, lipids from 4.0×10^8 particles, 5 μg PA (34:2) 6 hours; miRNAs 24 hours vs scrambled
Procedure: (§2) RNA isolation and quantitative real time PCR (qRT-PCR). Total RNA was isolated from P. gingivalis and TIGK cells using TRIZOL™ brand reagent according to the manufacturer's protocol (Invitrogen). RNA (1 μg) was converted into cDNA with ISCRIPT™ brand cDNA synthesis kit (Bio-Rad, Hercules, California, United States of America). qRT-PCR was performed for quantification of gene expression, cDNA samples were amplified with SSOFAST™ EVAGREEN® Supermix brand qRT-PCR cocktail in CFX96 Real-time PCR system (Bio-Rad). The mRNA expression was quantified by ΔΔCt method using 16S rRNA expression as an internal control for bacterial gene expression.
To further determine the molecular mechanisms underlying GELN-mediated inhibition of P. gingivalis gliding motility, the roles of GELNs, GELNs lipids, and GELN-derived miRNAs in modulating the expression of genes related to T9SS were determined. P. gingivalis was treated with GELNs (4.0×10^8 particles/ml) and GELNs lipids derived from 4.0×10^8 particles and 5 μg of PA (34:2) for 6 hours, and miRNAs aly-miR159a, gma-miR166u, and gma-miR166p were transduced into P. gingivalis by incubation for 24 hours. […] Further, it was determined that aly-miR159a-3p has potential binding sites in the T9SS C-terminal target domain containing protein PGN_0152; see FIG. 8H).

[12] = system: P. gingivalis attachment to TIGK cells; assay: Attachment of P. gingivalis to epithelial cells (ELISA, confocal microscopy); type: cell-based, Porphyromonas gingivalis; human TIGK cells; settings: GELNs vs PBS; total lipids (from 4.0×10^8 particles), 50 nM PA (34:2) vs DMSO; miRNAs vs scrambled control
Procedure: Culture of TIGK cells. Human telomerase immortalized keratinocytes (TIGKs) derived from gingival epithelium were obtained from Dr. Lamont Laboratory and maintained at 37° C. and 5% CO2 in DERMALIFE®-K brand serum free culture medium (Lifeline Cell Technology, Carlsbad, California, United States of America).
Attachment to epithelial cells. The amount of P. gingivalis attachment to the surface of gingival epithelial cells were determined. Briefly, telomerase immortalized gingival keratinocytes (TIGKs), derived from primary gingival epithelial cell lines, were cultured in 96-well plates for 24 hours. Then, the cells were fixed with 5% buffered formalin for 1 hour, and washed with PBS. […] Cells were washed with PBS to remove non-adherent bacteria. Then, wells were incubated with P. gingivalis whole-cell antibodies (1:10,000) at 37° C. for 1 hour, then washed with PBS. Binding was detected with a secondary horse radish peroxidase (HRP)-anti-rabbit antibody (1:5,000) and 3,3′,5,5′-tetramethylbenzidine substrate (Sigma), and recorded at 450 nm.
Then, the TIGK cells were fixed with 5% buffered formalin for 10 minutes. P. gingivalis cells were stained with an antibody raised against P. gingivalis (1:1000 dilution) incubated for 3 hour at room temperature. After extensive washing with PBS, cells were incubated with ALEXAFLUOR® 568-conjugated IgG (1:5000 dilution) for 1 hour at room temperature. […]

[13] = system: fimbrillin (fimA); assay: fimA expression (real-time PCR, western blot); type: cell-based, Porphyromonas gingivalis; settings: GELNs, total lipids or PA (34:2) 6 hours vs DMSO
Procedure: as §2

[14] = system: P. gingivalis invasion into TIGK cells; assay: P. gingivalis invasion, antibiotic protection assay (CFU); type: cell-based, Porphyromonas gingivalis; human TIGK cells; settings: GELNs total lipids or PA (34:2) vs DMSO control; miRNA-transduced bacteria

CCCCC/C=C\C/C=C\CCCCCCCC(=O)O[C@H](COC(=O)CCCCCCCCCCCCCCC)COP(=O)(O)O [PA (34:2), 1-palmitoyl-2-linoleoyl-sn-glycero-3-phosphate]
concentration at which P. gingivalis growth was inhibited ([1]; 0-50 μg/ml tested, 24 hours, very low concentration compared to other lipid compounds): 5 µg/mL
interaction of P. gingivalis proteins with immobilized nanoparticles (SPR sensograms) [2]: able to interact
direct interaction with HBP35 synthetic peptide (SPR sensogram peaks) [3]: directly interacted
arginine-specific (Rgp) gingipain activity [4]: contributed to inhibit
lysine-specific (Kgp) gingipain activity [5]: contributed to inhibit
AraC mRNA expression [6]: inhibited
hemagglutinin (HA) mRNA expression [7]: not significant
outer membrane protein (OMP) mRNA expression [8]: inhibited
RodA mRNA expression [9]: inhibited
gliding motility of P. gingivalis [10]: significantly inhibited the motility
T9SS family members whose expression was significantly inhibited [11]: 9/12
surface attachment of P. gingivalis to TIGK cells (ELISA) [12]: significantly inhibited surface attachment
fimA expression (mRNA and protein levels) [13]: significantly decreased
P. gingivalis invasion into TIGK cells [14]: significant decrease

WPRVGQLFIALDQTLGIPGFPTFSVCRME [HBP35 synthetic peptide]
blocking of GELN lipid-mediated inhibition of P. gingivalis growth ([1]; GELN total lipids (4.0 and 6.0×10^8 particles) pre-incubated with peptide): significantly blocked
blocking of PA-mediated inhibition of P. gingivalis growth ([1]; PA (34:2) pre-incubated with peptide): significantly blocked

Reference: patent US12616663B2, “Plant-derived exosome-like nanoparticles inhibit bacterial pathogenicity” (priority 2019, dated 2026)
